# Laboratory results as given in article PMC5613016, “GRL-09510, a Unique P2-Crown-Tetrahydrofuranylurethane -Containing HIV-1 Protease Inhibitor, Maintains Its Favorable Antiviral Activity against Highly-Drug-Resistant HIV-1 Variants in vitro” (Scientific Reports, 2017).
# Like-named read-outs stand apart in the source and are kept apart here.
# Columns and labels:
# HIV-1NL4-3 [1] = experiment: p24 production inhibition in MT-4 cells; type: cell-based; details: p24 Gag production, Table 3
# Description: (§1) The susceptibility of HIV-1LAI or HIV-2ROD to various compounds was determined as previously described[20]–[22]. Briefly, MT-2 cells (10^4/ml) were exposed to 100 TCID50 of HIV-1LAI or HIV-2ROD in the presence or absence of various concentrations of compounds in 96-well plates and were incubated at 37 °C for 7 days. After incubation, 100 μl of the medium was removed from each well, 3-(4,5-dimetylthiazol-2-yl)-2,5-diphenyltetrazolium bromide (MTT) solution (10 μl, 7.5 mg/ml in PBS) was added to each well, followed by incubation at 37 °C for 2 h. […] To determine the sensitivity of clinically isolated HIV-1s to compounds, PHA-PBMC (10^6/ml) were exposed to 50 TCID50 of each HIV-1 and cultured in the presence or absence of various concentrations of compounds in 10-fold serial dilutions in 96-well plates. In determining the drug-susceptibility of certain laboratory HIV-1 strains, MT-4 cells were employed as target cells as previously described[23],[24]. MT-4 cells (10^5/ml) were exposed to 100 TCID50 of drug-resistant HIV-1s in the presence or absence of various concentrations of compounds and were incubated at 37 °C. On day 7, the supernatants were harvested and the amounts of p24 were determined by using a fully-automated chemiluminescent enzyme immunoassay system (Lumipulse f: Fujirebio, Tokyo)[35]–[37]. […] All assays were performed in duplicate, and EC50 shown in this report represent average values of two to four independent experiments. PHA-PBMCs were derived from a single donor in each independent experiment. The research protocols described in the present study were carried out in accordance with relevant guidelines and regulations, and were approved in Ethics Committee for Epidemiological and General Research at the Faculty of Life Sciences, Kumamoto University.
# HIV-1APV ^R 5μM = experiment: p24 production inhibition in MT-4 cells; type: cell-based; details: for fold change of EC50 HIV-1APV ^R 5μM: number in parentheses, compared to HIV-1NL4-3
# Description: as §1
# HIV-1ATV ^R 5μM = experiment: p24 production inhibition in MT-4 cells; type: cell-based; details: for fold change of EC50 HIV-1ATV ^R 5μM: number in parentheses, compared to HIV-1NL4-3
# Description: as §1
# HIV-1LPV ^R 5μM = experiment: p24 production inhibition in MT-4 cells; type: cell-based; details: for fold change of EC50 HIV-1LPV ^R 5μM: number in parentheses, compared to HIV-1NL4-3
# Description: as §1
# HIV-1MDR/TM = experiment: p24 production inhibition in PHA-PBMC; type: cell-based; details: for EC50: p24 Gag production; for fold change of EC50 HIV-1MDR/TM: compared to EC50 for HIV-1ERS104pre
# Description: as §1
# HIV-1MDRmix DRV ^R 20P = experiment: p24 production inhibition in PHA-PBMC; type: cell-based; details: for fold change of EC50 HIV-1MDRmix DRV ^R 20P: compared to EC50 for HIV-1ERS104pre
# Description: as §1
# HIV-1MDR/C = experiment: p24 production inhibition in PHA-PBMC; type: cell-based; details: for EC50: p24 Gag production; for fold change of EC50 HIV-1MDR/C: compared to EC50 for HIV-1ERS104pre
# Description: as §1
# HIV-1MDR/B = experiment: p24 production inhibition in PHA-PBMC; type: cell-based; details: for EC50: p24 Gag production; for fold change of EC50 HIV-1MDR/B: compared to EC50 for HIV-1ERS104pre
# Description: as §1
# HIV-1MDR/G = experiment: p24 production inhibition in PHA-PBMC; type: cell-based; details: for EC50: p24 Gag production; for fold change of EC50 HIV-1MDR/G: compared to EC50 for HIV-1ERS104pre
# Description: as §1
# [2] = system: HIV-1ERS104pre (wild-type); experiment: p24 production inhibition in PHA-PBMC; type: cell-based; details: p24 Gag production
# Description: as §1
# MT-2 cells = experiment: Cytotoxicity against MT-2 cells (MTT assay); type: cell-based
# Description: as §1
# HIV-1NL4-3 [3] = experiment: In vitro selection of resistant HIV-1 variants in MT-4 cells; type: cell-based; details: HIV-1NL4-3 in MT-4 cells, increasing concentrations
# From the text: MT-4 cells (10^5/ml) were exposed to HIV-1NL4-3 (500 TCID50) and cultured in the presence of compounds at an initial concentration of its EC50 value. Viral replication was monitored by the determination of the amount of p24 produced by MT-4 cells. The supernatants were harvested on day 7 and were used to infect fresh MT-4 cells for the next round of culture in the presence of increasing concentrations of each compound. Proviral DNAs obtained from the lysates of infected cells were subjected to sequencing. This selection procedure was carried out until the drug concentration reached 5 μM as previously described[20]–[22]).
# HIV-2ROD = experiment: microbe, parasite or virus in culture; type: cell-based; details: for EC50: 100 TCID50, MTT assay, read-out: EC50 Against HIV-2ROD; for Selectivity Index (CC50/EC50) MT2/HIV-2ROD: ratio of CC50 to EC50 against HIV-2ROD
# Description: as §1
# HIV-1LAI = experiment: microbe, parasite or virus in culture; type: cell-based; details: for EC50: 100 TCID50, MTT assay, read-out: EC50 Against HIV-1LAI; for Selectivity Index (CC50/EC50) MT2/HIV-1LAI: ratio of CC50 to EC50 against HIV-1LAI
# Description: as §1
# HIV-1_9510 ^R 36P = experiment: p24 production inhibition in MT-4 cells; type: cell-based
# Description: as §1
# HIV-1BaL (subtype B, R5) = experiment: p24 production inhibition in PHA-PBMC; type: cell-based; details: Human immunodeficiency virus 1, PHA-PBMC, p24 Gag production
# Description: as §1
# [4] = system: HIV-1ME46 (subtype B, X4/R5); experiment: p24 production inhibition in PHA-PBMC; type: cell-based; details: Human immunodeficiency virus 1, PHA-PBMC, p24 Gag production
# Description: as §1
# HIV-1NL4-3 [5] = system: HIV-1NL4-3; set-up: method as in PMID 14506019; details: HIV-1NL4-3 in MT-4 cells, increasing concentrations; previously reported; cited from earlier work
# [6] = Cytotoxicity against MT-2 cells (MTT assay); type: cell-based; details: human
# Description: as §1
# [7] = system: HIV-192UG029 (subtype A, X4); experiment: p24 production inhibition in PHA-PBMC; type: cell-based, HIV-1; details: Human immunodeficiency virus 1, read-out: EC50 HIV-192UG029 (subtype A, X4)
# Description: as §1
# [8] = Human immunodeficiency virus 1, PHA-PBMC
smiles,measurement,setting,value
COc1ccc(S(=O)(=O)N(CC(C)C)CC(O)C(Cc2ccccc2)NC(=O)OC2C3COC4OCC2C4C3)cc1 (centres unmarked) [GRL-09610],EC50,HIV-1NL4-3 [1]; MT-4 cells,3.2 ± 0.2 nM
same,fold change of EC50 HIV-1APV ^R 5μM,HIV-1APV ^R 5μM,97
same,EC50,"HIV-1APV ^R 5μM; read-out: EC50 HIV-1APV ^R 5μM, MT-4 cells, p24 Gag production",310 ± 90 nM
same,fold change of EC50 HIV-1ATV ^R 5μM,HIV-1ATV ^R 5μM,11
same,EC50,"HIV-1ATV ^R 5μM; read-out: EC50 HIV-1ATV ^R 5μM, MT-4 cells, p24 Gag production",35.4 ± 0.8 nM
same,fold change of EC50 HIV-1LPV ^R 5μM,HIV-1LPV ^R 5μM,10
same,EC50,"HIV-1LPV ^R 5μM; read-out: EC50 HIV-1LPV ^R 5μM, MT-4 cells, p24 Gag production",32 ± 1 nM
same,EC50,HIV-1MDR/TM; PHA-PBMC,28.9 ± 1.6 nM
same,fold change of EC50 HIV-1MDR/TM,HIV-1MDR/TM,9
same,fold change of EC50 HIV-1MDRmix DRV ^R 20P,HIV-1MDRmix DRV ^R 20P,78
same,EC50,"HIV-1MDRmix DRV ^R 20P; read-out: EC50 HIV-1MDRmix DRV ^R 20P, PHA-PBMC, p24 Gag production",250 ± 30 nM
same,EC50,HIV-1MDR/C; PHA-PBMC,4.9 ± 1.8 nM
same,fold change of EC50 HIV-1MDR/C,HIV-1MDR/C,2
same,EC50,HIV-1MDR/B; PHA-PBMC,14.5 ± 1.3 nM
same,fold change of EC50 HIV-1MDR/B,HIV-1MDR/B,5
same,EC50,HIV-1MDR/G; PHA-PBMC,15.8 ± 13.3 nM
same,fold change of EC50 HIV-1MDR/G,HIV-1MDR/G,5
same,EC50,[2]; PHA-PBMC,3.2 ± 0.2 nM
same,CC50,MT-2 cells,33100 ± 1000 nM
same,passage at which selection concentration reached 5 µM,HIV-1NL4-3 [3],~43
same,EC50,HIV-2ROD; MT-2 cells,15 ± 9 nM
same,Selectivity Index (CC50/EC50) MT2/HIV-2ROD,HIV-2ROD,"2,207"
same,EC50,HIV-1LAI; MT-2 cells,2.3 ± 0.7 nM
same,Selectivity Index (CC50/EC50) MT2/HIV-1LAI,HIV-1LAI,"14,391"
"CC(C)CN(C[C@@H](O)[C@H](Cc1ccccc1)NC(=O)O[C@H]1CCOC1)S(=O)(=O)c1ccc(N)cc1 [APV, Amprenavir]",EC50,"HIV-1_9510 ^R 36P; Human immunodeficiency virus 1, MT4, read-out: EC50 HIV-19510RP36",270 ± 20 nM
same,fold change of EC50 HIV-19510RP36,"HIV-1_9510 ^R 36P; compared to EC50 for HIV-1NL4-3, Supplemental Table 3",9
same,EC50,"HIV-1NL4-3 [1]; Human immunodeficiency virus 1, MT4, MT-4 cells",30 ± 6 nM
same,EC50,"HIV-1APV ^R 5μM; Human immunodeficiency virus 1, MT4, read-out: EC50 HIV-1APV ^R 5μM, MT-4 cells, p24 Gag production",> 1000 nM
same,fold change of EC50 HIV-1APV ^R 5μM,HIV-1APV ^R 5μM,> 25
same,EC50,"HIV-1ATV ^R 5μM; Human immunodeficiency virus 1, MT4, read-out: EC50 HIV-1ATV ^R 5μM, MT-4 cells, p24 Gag production",350 ± 70 nM
same,fold change of EC50 HIV-1ATV ^R 5μM,HIV-1ATV ^R 5μM,9
same,EC50,"HIV-1LPV ^R 5μM; Human immunodeficiency virus 1, MT4, read-out: EC50 HIV-1LPV ^R 5μM, MT-4 cells, p24 Gag production",> 1000 nM
same,fold change of EC50 HIV-1LPV ^R 5μM,HIV-1LPV ^R 5μM,> 25
same,EC50,HIV-1MDR/TM; [8],320 ± 50 nM
same,fold change of EC50 HIV-1MDR/TM,HIV-1MDR/TM,8
same,EC50,"HIV-1MDRmix DRV ^R 20P; Human immunodeficiency virus 1, read-out: EC50 HIV-1MDRmix DRV ^R 20P, PHA-PBMC, p24 Gag production",> 1000 nM
same,fold change of EC50 HIV-1MDRmix DRV ^R 20P,HIV-1MDRmix DRV ^R 20P,> 26
same,EC50,HIV-1MDR/C; [8],250 ± 50 nM
same,fold change of EC50 HIV-1MDR/C,HIV-1MDR/C,6
same,EC50,HIV-1MDR/B; [8],420 ± 50 nM
same,fold change of EC50 HIV-1MDR/B,HIV-1MDR/B,11
same,EC50,HIV-1MDR/G; [8],300 ± 90 nM
same,fold change of EC50 HIV-1MDR/G,HIV-1MDR/G,8
same,EC50,"HIV-1BaL (subtype B, R5)",29 ± 2 nM
same,EC50,[2]; [8],39 ± 5 nM
same,EC50,[4],22 ± 40 nM
same,passage at which selection concentration reached 5 µM,HIV-1NL4-3 [5],≥ 20
same,CC50,[6],48200 ± 9900 nM
same,EC50,"HIV-2ROD; Human immunodeficiency virus 2, MT2, MT-2 cells",297 ± 174 nM
same,Selectivity Index (CC50/EC50) MT2/HIV-2ROD,HIV-2ROD,162
same,EC50,"HIV-1LAI; Human immunodeficiency virus 1, MT2, MT-2 cells",37 ± 7 nM
same,Selectivity Index (CC50/EC50) MT2/HIV-1LAI,HIV-1LAI,"1,303"
same,EC50,[7],41 ± 2 nM
